Values joined by “and” are separate entries in the source; they are usually repeats but may differ in a detail not shown here. Equal values may be shown once. “Also recorded” adds a separate entry of the source. Read-outs that look alike come from different tables or passages of the source. Marks after values point to notes of the source that are not given here.

For data set [1], the system named is CFA mono-arthritic knee joints in Sprague-Dawley rats. Description: Knee joint circumference in CFA-induced monoarthritis. In kind it is in vivo, rat. As to conditions: Post-CBD, four consecutive days (day 4), mean ± SD.
For data set [2] the test system is unchanged. Nature of the data set: Knee joint temperature in CFA-induced monoarthritis. The data set is classed as in vivo, rat. Conditions: for Knee joint temperature: Post-CBD, four consecutive days (day 4), mean ± SD.
The subject of data set [3] is rats with CFA induced mono-arthritis. Description: Secondary thermal hyperalgesia, paw withdrawal latency (PWL) test, CFA rats. The data set is classed as in vivo, rat.
The subject of a further data set is normal rats. Description: Paw withdrawal latency (PWL) test, normal rats. The data set is classed as in vivo, rat. As to conditions: any CBD dose (0.6, 3.1, 6.2 mg/d). The method, then:
Secondary thermal hyperalgesia was assessed with the paw withdrawal latency (PWL) test (Hargreaves et al. (1988) Pain 32: 77-88). PWLs were measured in response to a radiant heat source shone on one hind paw of the animals from beneath a glass top table. A shortened PWL response in animals with knee joint inflammation was indicative of secondary thermal hyperalgesia. Animals were placed in separate plastic cubicles (4×4×10 in) on a glass top table (2 mm thickness of glass) and allowed to adapt to their new environment for 20-30 min before testing. A small movable metal box that focused a high-intensity light beam through an aperture (0.5 cm×0.5 cm) was attached to an on/off switch and a digital timer. […] At that time, the light is switched off and the number of seconds on the digital timer recorded as the PWL (sec). […] A mean of the 5 trials was calculated for each animal. […]
(§1) Baseline parameters (body weight, knee joint temperature, and knee joint circumference) were obtained before the knee injection of rats with CFA. […] Exploratory activity was monitored prior to initial gel application and on the third day post gel application (after 6 h). […] Blood samples were obtained for CBD plasma quantification, and tissues (knee joints, dorsal root ganglia, spinal cord, brain) were collected after perfusion. […]

A further data set deals with normal (non-CFA) rats. Description: Open field exploratory behavioral activity. Conditions: 0.6 to 62.3 mg/d, pre-dose versus post-dose and among dose groups. The data set is classed as in vivo, rat. The method, then: Exploratory behavioral activity of the rats was monitored using the Flexfield Animal Activity System (San Diego Instruments; San Diego, Calif.) with a Photobeam Activity System software coupled to a computer according to previously published methods by Zhang et al., (2004) Pharmacol Biochem Behav 77: 145-153. Briefly, six main parameters were recorded: rearing events and rearing time, active time and resting time, total activity (i.e. number of photobeams disturbed in the x-y-z planes while the rat was moving around in the box or involved in stationary movement such as grooming), and distance traveled. Activity testing was conducted in an isolated, temperature controlled area at similar times daily in order to provide consistent results.
as §1, with “CFA. PWL test and exploratory activity testing were also conducted prior to CFA injection. Rats were anesthetized with a short term anesthetic and the left knee joint cavity was injected with CFA for induction of mono-arthritis.” for “CFA.”

A short description of data set [4]: Plasma CBD concentration after topical gel application (LC/MS). The data set is classed as in vivo, rat. Conditions: plasma concentration versus dose, 0.6, 3.1 and 6.2 mg/d. The method, then: Baseline parameters (body weight, knee joint temperature, and knee joint circumference) were obtained before the knee injection of rats with CFA. PWL test and exploratory activity testing were also conducted prior to CFA injection. Rats were anesthetized with a short term anesthetic and the left knee joint cavity was injected with CFA for induction of mono-arthritis. On day 3, the back of each animal was shaved. […] Rats received daily treatments for four consecutive days of either vehicle gel, or CBD gel. Gel was applied to the skin in a templated region on the dorsal surface of the rat and rubbed into the skin for 30 sec to ensure complete coverage. The nitrile template was used to ensure specific area reproducibility. […] Exploratory activity was monitored prior to initial gel application and on the third day post gel application (after 6 h). […] Blood samples were obtained for CBD plasma quantification, and tissues (knee joints, dorsal root ganglia, spinal cord, brain) were collected after perfusion. […]
The LC/MS system used to analyze samples was comprised of a Waters Alliance 2695 pump and autosampler, a Micromass™ ZQ detector, and 996 photodiode array detector with MassLynx™ software (Waters Corp., Milford, Mass.). […] The ZQ detector was used with an electrospray ionization (ESI) probe set for single ion monitoring (SIM) for cannabidiol quantification. […]

For data set [5] the following is noted: cited from earlier work.
For data set [6] the following is noted: hairless guinea pigs, 1% hydroalcoholic CBD gel, up to 8 h post application; cited from earlier work.
For a further data set, the target named is CB2 (Homo sapiens, UniProt P34972). As to conditions: cited from earlier work.
Chain of CB2 (P34972 whole entry, species assumed): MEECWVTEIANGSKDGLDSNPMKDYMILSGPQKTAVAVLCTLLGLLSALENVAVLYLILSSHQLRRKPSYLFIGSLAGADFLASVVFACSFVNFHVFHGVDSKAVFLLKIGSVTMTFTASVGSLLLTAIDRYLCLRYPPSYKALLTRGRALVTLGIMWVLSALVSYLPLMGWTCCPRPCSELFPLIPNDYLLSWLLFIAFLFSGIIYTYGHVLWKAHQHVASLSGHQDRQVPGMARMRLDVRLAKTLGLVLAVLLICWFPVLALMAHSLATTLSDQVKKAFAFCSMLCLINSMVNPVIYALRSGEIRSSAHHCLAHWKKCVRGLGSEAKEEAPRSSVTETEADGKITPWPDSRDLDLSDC

Regarding `C=C(C)C1CCC(C)=CC1c1c(O)cc(CCCCC)cc1O` (stereo not drawn) [CBD, 2-[3-methyl-6-(1-methylethenyl)-2-cyclohexen-1-yl]-5-pentyl-1,3-benzenedi-ol], the Knee joint circumference in data set [1] (0.6 mg/d CBD gel on skin) is 7.0 ± 0.3^b cm; in data set [1] (3.1 mg/d CBD gel on skin), 7.1 ± 0.3^b cm; in data set [1] (6.2 mg/d CBD gel on skin) it was 6.6±0.2 cm and 6.6 ± 0.2^b* cm; in data set [1] (62.3 mg/d CBD gel on skin), 6.6±0.1 cm and 6.6 ± 0.1^a* cm. In addition, in data set [2] (0.6 to 62.3 mg/d CBD versus vehicle gel, p>0.05), the “Differences in knee joint temperature among the treatment groups” value is given as “no significant differences”. Also, the Knee joint temperature in [2] (0.6 mg/d) is reported as 31.2 ± 0.7^b ° C; in [2] (3.1 mg/d), 30.6 ± 0.6^b ° C; in [2] (6.2 mg/d), 31.7 ± 2.1^b ° C; in data set [2] (62.3 mg/d), 30.2 ± 0.9^a ° C. Moreover, in [3] (0.6 mg/d and 3.1 mg/d, day 4), the “PWL scores, improvement” value is “did not have improved PWL scores”. In addition, the “PWL, improvement compared to CFA rats receiving vehicle gel” value in [3] (6.2 mg/d, 4 h (d 1) post CBD dosing, p<0.05) is on record as “improvement”. In addition, in the data set with normal rats, the “Effect on PWL in normal animals” value was “no effect; also recorded: not affected”. Besides, the “Exploratory activities, six parameters (rearing events, rearing time, total beams broken, distance traveled, active time, resting time), differences” value in the data set with normal (non-CFA) rats is on record as “No significant (p>0.05) differences; also recorded: no differences in activity measurements”. Further, the “Linear pharmacokinetic correlation, slope” value in data set [4] turned out to be 1.0. Besides, the Cmax plasma concentration in [5] (hairless guinea pigs dosed once with 6.2 mg/d CBD gel, n=3) is 45.8 ± 8.4 ng/mL; in data set [5] (hairless guinea pigs, 6.2 mg/d CBD gel, after 3 consecutive days of gel application, n=5) it was 85.6 ± 48.4 ng/mL. In addition, the “Time out to which CBD plasma concentrations were detected” value in data set [5] (hairless guinea pigs, after a single initial gel application) was 120 h. In addition, the time to peak (Tmax) (usually the time from dosing to the highest level) is 40.0 ± 14.5 h in [5] (hairless guinea pigs, multiple applications) and 6.7 ± 2.1 h in [5] (hairless guinea pigs, single application). The “Residual drug remaining on the skin surface” value in [6] is listed as “approximately 15%”. The “Binding affinity for CB2” value on CB2 was “little binding affinity”.

The record behind these values is US20120202891A1, “Cannabinoid-Containing Compositions and Methods for Their Use” (UNIVERSITY OF KENTUCKY RESEARCH FOUNDATION, priority 2009, published 2012).
